Laboratory results taken from patent US20210268030A1, “FIBROADIPOGENIC PROGENITOR-DERIVED EXOSOMES FOR REGENERATION OF DYSTROPHIC MUSCLES” (EXOFIX S.R.L., priority 2018, published 2021).

Experiments:
[1] = system: MuSCs; assay: Transwell co-culture of FAPs with MuSCs, myogenic differentiation (fusion index); assay type: cell-based, mdx mice; conditions: FAPs exposed to GW4869 (10 uM) before transwell co-culture
Experimental: MuSCs and FAP cells were co-cultured by using inserts with 1.0 μm porous membrane to avoid direct contact between populations.
Cell culture inserts with 1.0-·m pore (#353102, #353104, Falcon) and 6 or 24 -well culture plates (BD Bioscience) were used for transwell co-culture. Freshly sorted MuSCs were plated in the bottom of the plate, while FAP cells were plated on the upper insert.
To decrease FAP-exosomes release, GW4869 (10 uM, #D1692, Sigma) was added to FAPs culture 30′ before the co-culture setting with MuSCs. To wash away any residual trace of GW4869, FAPs media was refreshed right before co-culture.
For Drosha SiRNA treatments, in vivo TSA treated FAPs on transwell were transfected with commercially available Drosha siRNA using Dharmafect3.0 (Dharmacon) according to manufacturer instructions; after 6 hours FAPs were put in co-culture with MuSCs.
We began to determine the identity of the extracellular mediators of FAP's support to MuSCs in DMD muscles, by performing transwell co-cultures between FAPs isolated from 1.5 month old mdx mice and MuSCs isolated from age-matched mdx mice. In transwell cultures, cells are separated by a membrane of 1 μm pore size that prevents direct cell contact, yet allows reciprocal transfer of soluble mediators of functional interactions between co-cultured cells.

[2] = system: MuSCs within single fibres; assay: Single muscle fibres incubated with FAP conditioned media or exosomes (Pax7, MyoD, EdU); assay type: cell-based, C57BL6J-WT mice
Experimental: Single fibers were isolated using Pasut (2013) and Moyle's protocol (2014) from tibialis anterior, extensor digitorum longus, gastrocnemius and soleus muscles of C57BL6J-WT mice and cultured in proliferating medium (GM1: DMEM+pyruvate+4.5 g/l glucose+glutamate, 10% horse serum (HS), 0.5% Chicken Embryo Extract) for 24 hours, then exposed for the next 24 hrs to GM1 conditioned media derived from culture of FAPs (MEDIA-FAPs) isolated from young mdx mouse treated for 15 days with vehicle (CTR) or mdx mice treated with TSA (TSA) or media isolated from FAPs CTR and TSA pre-treated with the GW4869 to inhibit exosome biogenesis. In a parallel, independent experiment, single fibers were exposed to exosomes (EXO-FAPs) purified from MEDIA-FAPs and added to GM1 for 24 hours.
In ex-vivo experiments FAP-derived Exosomes (10·g) isolated by TEIR were put in culture with MuSCs or with myofibers in the cell culture media.
To investigate this hypothesis, we evaluated the effect of FAP-derived exosomes from HDACi-treated or control-treated mdx mice on MuSCs within single fibres isolated from WT mice. Freshly isolated single muscle fibres from tibialis anterior, extensor digitorum longus, gastrocnemius and soleus of C57BL6J mice were incubated with FAP-derived exosomes or whole conditioned media, and their effect on MuSCs was evaluated by monitoring the expression of Pax7, MyoD and DNA synthesis (EdU incorporation). In this experimental setting, the uptake of FAP-derived exosomes by MuSCs from single fibers was first confirmed by staining of lipidic dye PKH-67 used on purified vesicles (FIG. 6B).

[3] = system: MuSCs; assay: PKH-67 tracing of exosome transfer from FAPs to MuSCs in transwell co-culture; assay type: cell-based, mdx mice; conditions: PKH67-labelled FAPs exposed to GW4869
Experimental: To stain FAPs derived exosomes, FAP cells were incubated with the lipidic dye PKH-67 (#P7333, Sigma) according to manufacturer instructions prior to transwell co-culture with MuSCs.
To analyse the capacity of MuSCs to uptake FAP-derived exosomes, we performed a transwell co-culture in which the potential “source” of exosomes—FAPs—was […] prior to transwell co-culture with the “acceptor” cells—MuSCs. […] PKH-67 is incorporated into newly generated exosomes, and therefore traces their passage to acceptor cells.

[4] = system: muscles of DMD patients; conditions: phase I/II clinical trial, after one year of treatment; cited from earlier work
[5] = system: animals affected by muscular dystrophy; conditions: in vivo; cited from earlier work
[6] = system: preclinical model of DMD; conditions: Colussi et al. 2010; cited from earlier work
[7] = supernatant of FAPs from control-treated mdx mice pre-exposed to GW4869

SMILES: O=C(/C=C/c1ccc(/C=C/C(=O)Nc2ccc(C3=NCCN3)cc2)cc1)Nc1ccc(C2=NCCN2)cc1 [GW4869]
- FAP's ability to enhance MuSCs differentiation into multinucleated myotubes [1]: abrogated
- ability of the whole supernatant to increase all MuSC populations as well as their proliferation ([2]; GW4869 treatment of FAPs from TSA-treated mdx mice): drastically reduced
- number of Pax7+/MyoD+ MuSCs with high DNA synthesis (Edu+) [2, 7]: not altered
- number of quiescent (Pax7+MyoD−) and differentiation-committed (Pax7- MyoD+) MuSCs [2, 7]: drastic reduction
- prevention of detection of the PKH-67 signal in MuSCs co-cultured with FAPs [3]: more than 80%

SMILES: CCN(CC)Cc1ccc2cc(COC(=O)Nc3ccc(C(=O)NO)cc3)ccc2c1 [Givinostat]
- histology of the muscles of DMD patients [4]: positively affect
- activity in the treatment of animals affected by muscular dystrophy [5]: active

SMILES: Nc1ccccc1NC(=O)c1ccc(CNC(=O)OCc2cccnc2)cc1 [MS-275]
- activity in the treatment of animals affected by muscular dystrophy [5]: active

SMILES: O=C(CCCCCCC(=O)Nc1ccccc1)NO [Vorinostat]
- dose response curve [6]: bell-shaped
- activity in the treatment of animals affected by muscular dystrophy [5]: active
